# Results from patent US20250034216A1, “STEREOSELECTIVE COVALENT LIGANDS FOR ONCOGENIC AND IMMUNOLOGICAL PROTEINS” (The Scripps Research Institute, priority 2021, published 2025).
# Key:
# [1] = system: 20S core proteasomal complex; assay: SEC-MS elution profile; assay type: cell-based, human; conditions: 22Rv1 cells, 20 μM, 3 h
# Method: Sample preparation: Cells (adherent: 15 cm dishes, suspension: 2 million cells/mL) were treated with electrophilic probes in situ for indicated times and concentrations (elaborated fragments: 20 μM, 3 h), washed with ice-cold PBS, and flash frozen in liquid nitrogen. Cell pellets were lysed by sonication (8 pulses, 40% power) in 600 μL ice-cold PBS supplemented with cOmplete protease inhibitors (1 tablet/10 mL of PBS), ultracentrifuged for 20 min at 100,000 g, then normalized to a standardized concentration (typically 1.5 to 2.5 mg/mL). Clarified lysate was injected into a Superdex 200 Increase 10/300 GL column attached to an AKTA pure FPLC system. Proteins were fractionated using an isocratic gradient (PBS) running at 0.5 mL/min into 5 fractions 2 mL wide, beginning at 8 mL and ending at 18 mL. Eluate was collected into 15 mL tubes containing 12 mL of acetone at 4C. […]
# (§1) Data processing: Fractional distributions for each peptide-spectra match with a total TMT reporter ion intensity were calculated by dividing the reporter ion intensity for each TMT channel by the summed intensity across the 5 TMT channels corresponding to a single treatment condition (Equation 1). […] Euclidean distances (SE shift scores, Equation 2) were calculated using the average elution profile for each protein across replicates, combined by treatment condition and cell line. […]
# p27 = assay: anti-p27 western blot; assay type: cell-based, human; conditions: 22Rv1 cells, 24 h
# DDX42 = assay: SEC-MS elution profile; assay type: cell-based, human; conditions: 22Rv1 cells, 20 μM, 3 h
# Method: . Cell pellets were lysed by sonication (8 pulses, 40% power) in 600 μL ice-cold PBS supplemented with cOmplete protease inhibitors (1 tablet/10 mL of PBS), ultracentrifuged for 20 min at 100,000 g, then normalized to a standardized concentration (typically 1.5 to 2.5 mg/mL). Clarified lysate was injected into a Superdex 200 Increase 10/300 GL column attached to an AKTA pure FPLC system. Proteins were fractionated using an isocratic gradient (PBS) running at 0.5 mL/min into 5 fractions 2 mL wide, beginning at 8 mL and ending at 18 mL. Eluate was collected into 15 mL tubes containing 12 mL of acetone at 4C. After completion of one set of 5 fractions, the above protocol was repeated a second time for the remaining 5 fractions. Proteins were precipitated overnight at −20 C, then spun at 4500 g for 20 minutes, yielding a white protein pellet. […]
# as §1
# SF3B1 C1111 = molecular target: T1, SF3B1 C1111 (Homo sapiens, UniProt O75533+Q7RTV0); assay: Parallel reaction monitoring of IA-DTB labeled SF3B1 peptides; assay type: binding; conditions: 22Rv1 cells
# T1 construct: Cysteine engagement data from 22Rv1 cells treated; endogenous in cells; host or cells: 22Rv1
# Method: Dry peptide samples were reconstituted in a water/acetonitrile (85:15) mixture containing 0.1% formic acid (100 μl) and 15 μl was injected on to an EASY-Spray C18 loading column (5 μm particle size, 100 μm×2 cm; Fisher Scientific, DX164564) and resolved on a custom analytical column (2 μM particle size, 75 μm×15 cm) using a Dionex Ultimate 3000 nano-LC (Thermo Fisher Scientific). Peptides were separated over a 60-min gradient of 15 to 33% acetonitrile (0.1% formic acid) and analyzed on a Q-Exactive instrument (Thermo Fisher Scientific) using a parallel reaction monitoring method targeting the SF3B1 peptide containing C1111 (amino acids 1110-1149, missed tryptic, +3 charge state). Selected precursor ions were isolated and fragmented by high-energy collision dissociation and fragments were detected in the Orbitrap at 17,500 resolution.
# Raw data files were uploaded analyzed in Skyline (v.21.1.0.278) to determine the abundance of each peptide in vehicle-treated samples relative to inhibitor-treated samples. Peptide quantification was performed by calculating the sum of the peak areas corresponding to six fragment ions from each peptide. The peptides and fragment ions were preselected from in-house reference spectral libraries acquired in data-dependent acquisition mode to identify authentic spectra for each peptide.
# T1 sequence (O75533 whole entry): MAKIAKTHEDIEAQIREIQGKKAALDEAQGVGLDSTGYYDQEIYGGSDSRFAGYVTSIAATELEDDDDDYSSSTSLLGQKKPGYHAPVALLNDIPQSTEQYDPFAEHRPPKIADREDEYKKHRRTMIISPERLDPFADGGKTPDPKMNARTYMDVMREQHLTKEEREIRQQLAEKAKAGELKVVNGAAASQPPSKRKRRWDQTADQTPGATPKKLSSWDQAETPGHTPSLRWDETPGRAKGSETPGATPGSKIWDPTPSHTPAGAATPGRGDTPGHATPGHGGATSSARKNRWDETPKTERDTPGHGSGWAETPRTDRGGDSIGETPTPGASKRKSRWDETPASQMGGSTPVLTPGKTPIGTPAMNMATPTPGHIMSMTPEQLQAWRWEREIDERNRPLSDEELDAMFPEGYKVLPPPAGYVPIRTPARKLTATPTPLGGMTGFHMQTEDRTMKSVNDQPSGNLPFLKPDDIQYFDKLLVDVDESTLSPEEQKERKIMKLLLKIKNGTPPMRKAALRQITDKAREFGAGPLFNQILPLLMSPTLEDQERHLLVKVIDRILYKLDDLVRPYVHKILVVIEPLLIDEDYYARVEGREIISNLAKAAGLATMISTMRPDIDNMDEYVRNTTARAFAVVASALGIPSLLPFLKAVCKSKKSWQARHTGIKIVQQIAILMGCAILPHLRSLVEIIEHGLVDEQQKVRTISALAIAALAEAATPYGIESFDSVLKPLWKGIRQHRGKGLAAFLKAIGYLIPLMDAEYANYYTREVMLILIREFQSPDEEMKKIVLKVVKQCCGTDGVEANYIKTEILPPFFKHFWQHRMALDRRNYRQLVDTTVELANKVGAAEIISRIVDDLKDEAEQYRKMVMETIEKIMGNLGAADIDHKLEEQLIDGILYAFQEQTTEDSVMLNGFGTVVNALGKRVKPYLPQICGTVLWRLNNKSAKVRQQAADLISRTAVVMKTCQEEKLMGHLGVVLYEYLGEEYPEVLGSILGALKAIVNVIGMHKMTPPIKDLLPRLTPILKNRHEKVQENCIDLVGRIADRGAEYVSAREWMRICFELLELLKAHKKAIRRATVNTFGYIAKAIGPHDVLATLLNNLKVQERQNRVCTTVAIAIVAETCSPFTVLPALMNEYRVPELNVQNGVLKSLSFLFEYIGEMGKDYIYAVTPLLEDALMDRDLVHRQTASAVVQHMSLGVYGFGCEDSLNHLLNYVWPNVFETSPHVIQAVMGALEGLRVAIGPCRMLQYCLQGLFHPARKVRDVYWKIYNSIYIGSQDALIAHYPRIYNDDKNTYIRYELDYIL
# T1 sequence (Q7RTV0 whole entry): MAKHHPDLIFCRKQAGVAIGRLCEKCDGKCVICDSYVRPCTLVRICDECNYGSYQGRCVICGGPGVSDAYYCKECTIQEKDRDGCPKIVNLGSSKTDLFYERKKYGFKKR
# T1 sequence (Q15393 whole entry partner): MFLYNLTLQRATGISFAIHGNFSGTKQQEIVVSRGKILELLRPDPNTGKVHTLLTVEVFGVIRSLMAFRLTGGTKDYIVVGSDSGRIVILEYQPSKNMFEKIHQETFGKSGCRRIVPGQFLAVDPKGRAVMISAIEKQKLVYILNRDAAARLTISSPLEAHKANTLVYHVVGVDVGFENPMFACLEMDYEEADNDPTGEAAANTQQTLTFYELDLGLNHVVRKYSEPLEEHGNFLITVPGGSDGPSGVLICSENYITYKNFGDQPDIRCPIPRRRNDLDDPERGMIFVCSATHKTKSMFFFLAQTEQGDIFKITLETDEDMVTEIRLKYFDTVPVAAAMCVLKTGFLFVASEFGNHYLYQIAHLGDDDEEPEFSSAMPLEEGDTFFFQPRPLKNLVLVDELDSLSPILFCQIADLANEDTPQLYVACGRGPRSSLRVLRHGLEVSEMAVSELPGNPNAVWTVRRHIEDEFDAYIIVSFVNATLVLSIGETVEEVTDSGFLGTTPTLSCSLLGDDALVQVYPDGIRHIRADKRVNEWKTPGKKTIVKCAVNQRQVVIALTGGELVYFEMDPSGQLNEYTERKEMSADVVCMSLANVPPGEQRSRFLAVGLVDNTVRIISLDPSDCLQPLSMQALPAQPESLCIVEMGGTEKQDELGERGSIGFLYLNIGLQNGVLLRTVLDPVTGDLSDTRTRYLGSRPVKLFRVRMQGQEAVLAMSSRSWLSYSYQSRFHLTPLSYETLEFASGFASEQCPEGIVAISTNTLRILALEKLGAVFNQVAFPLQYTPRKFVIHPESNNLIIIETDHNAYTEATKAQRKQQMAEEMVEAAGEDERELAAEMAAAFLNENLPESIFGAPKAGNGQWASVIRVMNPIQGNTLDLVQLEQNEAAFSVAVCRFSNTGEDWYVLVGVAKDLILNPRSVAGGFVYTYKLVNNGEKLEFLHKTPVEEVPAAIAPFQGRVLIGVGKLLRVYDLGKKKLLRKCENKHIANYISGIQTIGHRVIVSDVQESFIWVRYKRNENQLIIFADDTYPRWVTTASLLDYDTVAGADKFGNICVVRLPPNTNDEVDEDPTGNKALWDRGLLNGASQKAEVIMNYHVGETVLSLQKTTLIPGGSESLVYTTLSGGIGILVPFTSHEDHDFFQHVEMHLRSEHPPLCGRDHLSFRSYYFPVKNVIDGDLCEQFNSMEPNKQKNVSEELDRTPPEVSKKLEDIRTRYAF
# T1 sequence (Q9BWJ5 whole entry partner): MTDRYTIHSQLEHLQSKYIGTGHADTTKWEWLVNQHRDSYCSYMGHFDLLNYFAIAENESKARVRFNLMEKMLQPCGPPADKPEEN
IA-DTB labeling of other cysteines in SF3B1 (SF3B1 C1111),"IA-DTB reaction with SF3B1 C1111 (SF3B1 C1111; 20 μM, 24 h)",SMILES,SEC migration of 20S core proteasomal complex subunits [1],p27 expression (p27),SEC migration shift of DDX42 (DDX42)
–,–,"C=CC(=O)N1C[C@H](c2ccc(Br)cc2)[C@@H]1C(=O)Nc1cccc2cccnc12 [MY-1B, (2R,3S)-1-acryloyl-3-(4-bromophenyl)-N-(quinolin-8-yl)azetidine-2-carboxamide]",unaffected,–,–
did not affect other cysteines in SF3B1,stereoselectively blocked,"C=CC(=O)N1[C@H](c2ccc3c(c2)OCO3)c2[nH]c3ccccc3c2C[C@H]1C(=O)N1CCOCC1 [WX-02-23, 1-((1R,3S)-1-(benzo[d][1,3]dioxol-S-yl)-3-(morpholine-4-carbonyl)-1,3,4,9-tetrahydro-2H-pyrido [3,4-b]indol-2-yl)prop-2-en-1-one]",–,induced expression of p27,stereoselectively caused this same size shift
